Results as given in ChEMBL document CHEMBL1201862, “PubChem BioAssay data set” (2004).
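Results reflect a 48-hour exposure of cells in 96-well plates to compound at five concentrations. Here, GI50 denotes the concentration required for 50% inhibition of growth.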 Active and inactive are the calls of the source. No stated cut-off is given here; in the data, active = GI50 up to about 1.1 µM and inactive = higher.

How the values were obtained:
Assay in all cases: inhibition of tumour cell growth, NCI panel, 48 h
CAKI-1 = test system: CAKI-1
HCT-116 = test system: HCT-116
LOX IMVI = test system: LOX IMVI
LXFL 529 = test system: LXFL 529
M14 = test system: M14
OVCAR-3 = test system: OVCAR-3
OVCAR-4 = test system: OVCAR-4
OVCAR-8 = test system: OVCAR-8
RPMI-8226 = test system: RPMI-8226
SF-295 = test system: SF-295
SN12C = test system: SN12C
SNB-19 = test system: SNB-19
SNB-78 = test system: SNB-78
SR = test system: SR
SW-620 = test system: SW-620
U-251 = test system: U-251
DU-145 = test system: DU-145
HCC 2998 = test system: HCC 2998
MDA-MB-231 = test system: MDA-MB-231
RXF 393 = test system: RXF 393

| Structure (SMILES) | GI50 (CAKI-1) | GI50 (HCT-116) | GI50 (LOX IMVI) | GI50 (LXFL 529) | GI50 (M14) | GI50 (OVCAR-3) | GI50 (OVCAR-4) | GI50 (OVCAR-8) | GI50 (RPMI-8226) | GI50 (SF-295) | GI50 (SN12C) | GI50 (SNB-19) | GI50 (SNB-78) | GI50 (SR) | GI50 (SW-620) | GI50 (U-251) | GI50 (DU-145) | GI50 (HCC 2998) | GI50 (MDA-MB-231) | GI50 (RXF 393) |
| --- | --- | --- | --- | --- | --- | --- | --- | --- | --- | --- | --- | --- | --- | --- | --- | --- | --- | --- | --- | --- |
| COC(=O)C1CC2C=CC=CC(=O)C2(C)C1 (stereo unspecified) | > 100 µM (inactive) | 28 µM (inactive) | 53.3 µM (inactive) | 31.2 µM (inactive) | 30.5 µM (inactive) | > 100 µM (inactive) | 83.2 µM (inactive) | 41.1 µM (inactive) | 22.6 µM (inactive) | 53.6 µM (inactive) | 81.1 µM (inactive) | 76.7 µM (inactive) | 30.7 µM (inactive) | 27.8 µM (inactive) | 27.2 µM (inactive) | > 100 µM (inactive) |  |  |  |  |
| O=C(c1ccccc1)c1ccc2nc3n(c2c1)C(c1c(Cl)cccc1Cl)SC3 (stereo unspecified) | 3.44 µM (inactive) | 3.26 µM (inactive) | 3.85 µM (inactive) |  | 3.3 µM (inactive) | 4.68 µM (inactive) | 7.45 µM (inactive) | 6.65 µM (inactive) | 3.51 µM (inactive) | 3.37 µM (inactive) | 7.64 µM (inactive) | 3.85 µM (inactive) |  | 1.43 µM (inactive) | 3.53 µM (inactive) | 5.58 µM (inactive) | 13.5 µM (inactive) | 7.05 µM (inactive) | 18.4 µM (inactive) | 5.94 µM (inactive) |
| CC(C)N(C(=O)C12C3C4C1C1C2C3C41C(O)C(C)(C)C)C(C)C (stereo unspecified) | > 50 µM (inactive) | > 50 µM (inactive) |  | > 50 µM (inactive) | > 50 µM (inactive) | > 50 µM (inactive) |  | > 50 µM (inactive) |  | > 50 µM (inactive) | > 50 µM (inactive) | > 50 µM (inactive) | > 50 µM (inactive) | > 50 µM (inactive) | > 50 µM (inactive) | > 50 µM (inactive) |  | > 50 µM (inactive) |  |  |
| COC(=O)[C@H](Cc1ccccc1)NC(=O)c1ccc(CNC(=O)/C=C/c2ccc(OCc3ccccc3)cc2)cc1 | 12.1 µM (inactive) | 25.2 µM (inactive) | 17.1 µM (inactive) |  | 2.44 µM (inactive) | 10.7 µM (inactive) | 6.55 µM (inactive) | 13.3 µM (inactive) | 39 µM (inactive) | 18.4 µM (inactive) | 13.9 µM (inactive) | 15.7 µM (inactive) |  | 12.1 µM (inactive) | > 47.4 µM (inactive) | 18.1 µM (inactive) | 12.4 µM (inactive) | 24.3 µM (inactive) | 16.5 µM (inactive) | 6.34 µM (inactive) |
| COC(=O)c1ccc(C)cc1CC1Cc2c(C)cccc2C1=O (stereo unspecified) | 6.4 µM (inactive) | 3.58 µM (inactive) | 8.09 µM (inactive) |  | 9.27 µM (inactive) | 3.96 µM (inactive) | 25.5 µM (inactive) | 14.3 µM (inactive) | 4.65 µM (inactive) | 7.73 µM (inactive) | 6.62 µM (inactive) | 9.89 µM (inactive) |  | 9.35 µM (inactive) | 3.85 µM (inactive) | 5.96 µM (inactive) | 29.4 µM (inactive) | 11.1 µM (inactive) | 2.32 µM (inactive) | 10.9 µM (inactive) |
| Cc1cc2c(c(C#N)c1C)NC(=O)C(CC(=O)O)C2=O (stereo unspecified) | > 100 µM (inactive) | > 100 µM (inactive) | > 100 µM (inactive) | > 100 µM (inactive) | > 100 µM (inactive) | > 100 µM (inactive) | > 100 µM (inactive) | > 100 µM (inactive) | > 100 µM (inactive) | > 100 µM (inactive) | > 100 µM (inactive) |  | > 100 µM (inactive) |  | > 100 µM (inactive) | > 100 µM (inactive) |  | > 100 µM (inactive) |  | > 100 µM (inactive) |
| O=C(Cn1cc(I)c(C(=O)NCC(O)CO)n1)NCC(O)CO (stereo unspecified) |  | > 100 µM (inactive) | > 100 µM (inactive) | > 100 µM (inactive) | > 100 µM (inactive) | > 100 µM (inactive) | > 100 µM (inactive) | > 100 µM (inactive) | > 100 µM (inactive) | > 100 µM (inactive) | > 100 µM (inactive) | > 100 µM (inactive) | > 100 µM (inactive) |  | > 100 µM (inactive) | > 100 µM (inactive) |  | > 100 µM (inactive) |  | > 100 µM (inactive) |
| CCOC(=O)CCSc1nc2ccc(I)cc2c(=O)n1Cc1ccccc1 | 2.67 µM (inactive) | 18.8 µM (inactive) | 28.2 µM (inactive) |  | 24.5 µM (inactive) | 17.9 µM (inactive) | 19.5 µM (inactive) | 37.5 µM (inactive) | 5.22 µM (inactive) | 21.7 µM (inactive) | 31.8 µM (inactive) | 38.2 µM (inactive) |  | 7.24 µM (inactive) | 41.1 µM (inactive) | 33 µM (inactive) | 37.1 µM (inactive) | 26.5 µM (inactive) | 28.2 µM (inactive) | 26.9 µM (inactive) |
| CCc1cccc(C)c1N1C(=O)C(=O)C(c2nc3ccccc3o2)C(=O)C1=O | > 100 µM (inactive) | > 100 µM (inactive) |  | > 100 µM (inactive) | > 100 µM (inactive) | > 100 µM (inactive) | > 100 µM (inactive) | > 100 µM (inactive) | > 100 µM (inactive) | > 100 µM (inactive) | > 100 µM (inactive) | > 100 µM (inactive) | > 100 µM (inactive) | > 100 µM (inactive) | > 100 µM (inactive) | > 100 µM (inactive) |  | > 100 µM (inactive) |  |  |
| CN/N=C(\C)c1c(O)cc(C)oc1=O | > 100 µM (inactive) | > 100 µM (inactive) | > 100 µM (inactive) | > 100 µM (inactive) | > 100 µM (inactive) |  | > 100 µM (inactive) | > 100 µM (inactive) |  | > 100 µM (inactive) | > 100 µM (inactive) | > 100 µM (inactive) |  | > 100 µM (inactive) | > 100 µM (inactive) | > 100 µM (inactive) |  | > 100 µM (inactive) |  |  |
| O=C(/C=C\c1cccc2ccccc12)c1ccc(F)cc1 | 17.3 µM (inactive) | 13.9 µM (inactive) |  | 17.1 µM (inactive) | 16.2 µM (inactive) | 17.1 µM (inactive) | 20.1 µM (inactive) | 14.8 µM (inactive) | 4.21 µM (inactive) | 19.3 µM (inactive) | 17.3 µM (inactive) | 16.6 µM (inactive) | 19.8 µM (inactive) |  | 7.52 µM (inactive) | 15.8 µM (inactive) |  | 19.5 µM (inactive) |  |  |
| CCCCCCCCCCCCCC(=O)CC(=O)c1c(O)cccc1O | 34 µM (inactive) | 43.6 µM (inactive) | 19.6 µM (inactive) | 35.2 µM (inactive) | 44.7 µM (inactive) | 18.9 µM (inactive) | 33.4 µM (inactive) | 44.3 µM (inactive) | 25.5 µM (inactive) | 42.4 µM (inactive) | 33.6 µM (inactive) | 36.4 µM (inactive) | 32.3 µM (inactive) |  | 23.6 µM (inactive) | 35.6 µM (inactive) |  | 38.2 µM (inactive) |  | > 100 µM (inactive) |
| CCOC(=O)c1cc(/C=C/C(C)=C/C(=O)OC)n(C)c1C | > 100 µM (inactive) |  | > 100 µM (inactive) | 91.6 µM (inactive) | > 100 µM (inactive) | 58.3 µM (inactive) | 60.7 µM (inactive) | > 100 µM (inactive) | 36.2 µM (inactive) | > 100 µM (inactive) | > 100 µM (inactive) | > 100 µM (inactive) | > 100 µM (inactive) |  | > 100 µM (inactive) | > 100 µM (inactive) |  | 92.5 µM (inactive) |  |  |
| O=C(O)CCN(CCCN(CCC(=O)O)CCC(=O)O)CCC(=O)O | > 100 µM (inactive) | > 100 µM (inactive) | > 100 µM (inactive) | > 100 µM (inactive) | > 100 µM (inactive) | > 100 µM (inactive) | > 100 µM (inactive) | > 100 µM (inactive) | > 100 µM (inactive) | > 100 µM (inactive) | > 100 µM (inactive) |  |  |  | > 100 µM (inactive) | > 100 µM (inactive) |  | > 100 µM (inactive) |  |  |
| N#C/C(N)=N/c1ccccc1 | > 100 µM (inactive) | > 100 µM (inactive) | 68.7 µM (inactive) | > 100 µM (inactive) | > 100 µM (inactive) | > 100 µM (inactive) | > 100 µM (inactive) | > 100 µM (inactive) | > 100 µM (inactive) | > 100 µM (inactive) | > 100 µM (inactive) | > 100 µM (inactive) |  | > 100 µM (inactive) | > 100 µM (inactive) | > 100 µM (inactive) |  | > 100 µM (inactive) |  |  |
| CN(C)CC1CCCC(CN2CCCCC2)C1=O (stereo unspecified) | 1.53 µM (inactive) | 3.01 µM (inactive) | 8.26 µM (inactive) |  | 7.73 µM (inactive) | 8.63 µM (inactive) | 4.25 µM (inactive) | 14.2 µM (inactive) | 0.158 µM (active) | > 93.5 µM (inactive) | 8.32 µM (inactive) | > 88.3 µM (inactive) | 7.71 µM (inactive) | 10.8 µM (inactive) | 1.87 µM (inactive) | > 54.6 µM (inactive) | 18.2 µM (inactive) | 18.5 µM (inactive) | 15.1 µM (inactive) | 12.8 µM (inactive) |
| COc1cccc(C=O)c1C(=O)c1cc(O)ccc1O | 23.7 µM (inactive) | 20.1 µM (inactive) | 37.8 µM (inactive) |  | 17.9 µM (inactive) | 20.2 µM (inactive) | 18.3 µM (inactive) | 20.3 µM (inactive) |  | > 100 µM (inactive) | > 84.1 µM (inactive) | > 100 µM (inactive) | > 45.9 µM (inactive) | 0.457 µM (active) | 17.1 µM (inactive) | > 100 µM (inactive) |  | > 100 µM (inactive) |  | 17.9 µM (inactive) |
